What was measured:
[1] = in vivo; cited from earlier work
[2] = cited from earlier work
[3] = of the potency of native insulin; cited from earlier work
rats = assay: euglycemic, hyperinsulinemic clamp with 3H-glucose tracer; type: in vivo; conditions: rat clamp
Method: Analogs of the invention can be tested in a euglycemic, hyperinsulinemic rat clamp using ^3 H-glucose as a tracer. In accordance with this technique, glucose is infused to maintain euglycemia. […] Using ^3 H-glucose, glucose utilization by the periphery (Rd) and glucose production by the liver (HGO) can be calculated under steady state conditions using the equation of Steel et al., Am. J. Physiol. (1956) 187:15-24, incorporated herein by reference.
Analogs were tested using the euglycemic, hyperinsulinemic clamp method. […] The exogenous glucose was infused at a rate sufficient to maintain euglycemia for the duration of the experiment. Additionally, [D-3-^3 H] glucose (tracer) is infused to assess glucose metabolism (i.e, glucose turnover). The steady state equation of Steele et al. (Am. J. Physiol. (1956) 187:15-241) was used to calculate hepatic glucose output and the rate of glucose disposal. Under steady state conditions, glucose (mg/ml) and ^3 H-glucose (dpm/ml) levels are constant. Under these conditions the rate of glucose appearance (Ra)=rate of glucose disappearance (Rd). At steady state Ra =Rd. Ra is further defined as the rate of glucose entering the glucose pool (approximately the blood volume and other extra-cellular volume). Ra is equal to the rate at which the liver is making glucose plus the rate of any exogenous glucose infusion. Rd is equal to the rate of glucose leaving the pool.
Three main parameters are used to assess the effects of the analogs. The rate of exogenous infusion (i.e., glucose infusion rate, GIR or M) estimates the potency of analog. […] Finally, hepatic glucose output (HGO), reflects the ability of the analogs to suppress the liver's production of glucose.
Four to five days prior to experimentation, 65 mg/kg of sodium pentobarbital was administered intraperitoneally to anesthetize rats. Catheters were inserted in the right jugular vein and left carotid artery. The catheters were routed subcutaneously to the dorsal region of the neck and exteriorized. […] Blood samples were taken from the jugular vein. […] At 10 minute intervals after starting hormone infusion, 50 μl blood samples were taken to determine the plasma glucose level. During infusion of hormone, a 30% glucose solution was infused at an empirically determined rate to maintain the basal glucose level.
Aliquots of whole blood were obtained at -20, -10 and 0 minutes before the clamp was started, and later at 70, 80, and 90 minutes into the clamp and the plasma glucose level determined. Glucose specific activity at these times was also determined as follows: [formula]
The blood was deproteinized with 10% TCA, centrifuged, and an aliquot of supernatant dried in a vacuum oven to evaporate off ^3 H2 O. The ^3 H-glucose levels in the sample were determined using a liquid scintillation counter. Basal Ra (glucose appearance rate) and clamp Ra were calculated by using steady state glucose specific activity (basal: -20, -10 and 0 minutes; clamp: 70, 80, 90 minutes) and the following equation: [formula] Under basal conditions, at steady state, Ra =Rd and Ra hepatic glucose output. Under clamp conditions, at a steady state, Ra =Rd, however under these conditions, Ra =hepatic glucose output plus exogenous glucose infusion rate. Hepatic glucose output under clamp conditions was determined by subtracting the glucose infusion rate from the calculated Rd.

Substance | circulating half-life [1] [min] | potency relative to insulin in vivo ([2]; of the potency of insulin) | in vivo hepatoselectivity, more than that of insulin ([2]; relative to insulin per se) [%] | potency relative to native insulin when assayed in vitro [3] | GIR (glucose infusion rate) (rats; infusion 41.5 ng/kg/min) [mg/kg/min] | HGO (hepatic glucose output) (rats; infusion 41.5 ng/kg/min) [mg/kg/min] | Rd (rate of glucose disappearance) (rats; infusion 41.5 ng/kg/min) [mg/kg/min] | GIR (glucose infusion rate) (rats; infusion 83 ng/kg/min) [mg/kg/min] | GIR (glucose infusion rate) (rats; infusion 100 ng/kg/min) [mg/kg/min] | HGO (hepatic glucose output) (rats; infusion 100 ng/kg/min) [mg/kg/min] | Rd (rate of glucose disappearance) (rats; infusion 100 ng/kg/min) [mg/kg/min] | GIR (glucose infusion rate) (rats; infusion 166 ng/kg/min) [mg/kg/min] | HGO (hepatic glucose output) (rats; infusion 166 ng/kg/min) [mg/kg/min] | Rd (rate of glucose disappearance) (rats; infusion 166 ng/kg/min) [mg/kg/min] | GIR (glucose infusion rate) (rats; infusion 415 ng/kg/min) [mg/kg/min] | HGO (hepatic glucose output) (rats; infusion 415 ng/kg/min) [mg/kg/min] | Rd (rate of glucose disappearance) (rats; infusion 415 ng/kg/min) [mg/kg/min]
Proinsulin: single chain peptide precursor of insulin synthesized in the islets of Langerhans | 30 | about 15% | 50 | 1-2% |  |  |  |  |  |  |  |  |  |  |  |  | 
Insulin: insulin, the comparator hormone infused in the rat clamp | 4 |  |  |  | 1.7 ± 0.6 | 11.3 ± 0.3 | 13.0 ± 0.3 | 6.9 ± 0.8 | 8.8 ± 1.2 | 9.1 ± 0.7 | 17.8 ± 1.0 | 19.7 ± 0.5 | 6.4 ± 1.1 | 26.1 ± 0.8 | 30.8 ± 1.7 | 3.5 ± 0.7 | 34.3 ± 1.6

Reference: US5446020A (Scios Nova Inc., priority 1993, dated 1995)
